This passage reports Ki and ED50 results from ChEMBL document CHEMBL1159162, “Conformationally constrained analogues of diacylglycerol (DAG). 3. Interaction of -alkyl--lactones with protein kinase C (PK-C)” (Bioorg Med Chem Lett, 1993).

pKi: −log10 of the molar value.

Target in one assay: not listed separately
Put plainly: (§1) Inhibition of [20-3H]phorbol-12,13-dibutyrate (PDBU) binding to protein kinase-C (PKC alpha, beta and gamma) from mouse brain.
A word on the pKi: it is −log10 of the Ki, conventionally taken in molar units. On to `CCCCCCCCCCCCCC(=O)O[C@H]1[C@H](CO)OC(=O)[C@@H]1CCCCCCCCCCCC`, for which the pKi was 5.54.

In the case of `CCCCCCCCCCCCCC[C@H]1C(=O)O[C@@H](CO)[C@@H]1OC(C)=O`, the pKi is 6.22.

As to `CCCCCCCCCCCC[C@H]1C(=O)O[C@@H](CO)[C@@H]1OC(C)=O`, the pKi was 5.96.

For `CCCCCCCCCCCCCC(=O)O[C@@H]1CC(=O)O[C@H]1CO`, the pKi is 5.60.

On to `CCCCCCCCCCCCCC(=O)OC[C@H](CO)OC(C)=O`, for which the pKi is 6.30.

`CCCCCCCCCCCCCC(=O)O[C@H]1CC(=O)O[C@@H]1CO` showed a negative logarithm of the Ki (pKi) of 5.28.

For the next assay, the species on record is Mus musculus. The assay is described as §1.
Compound `CCCCCCCCCCCCCC(=O)O[C@H]1C(CCCCCCCCCCCC)C(=O)O[C@@H]1CO` (stereo partly drawn) displayed an ED50 greater than 200 µM.

`CCCCCCCCCCCCC1C(=O)O[C@H](CO)[C@H]1OC(C)=O` (stereo partly drawn) came in with an ED50 greater than 100 µM.
